# Experimental data from patent US20130109682A1, “CYCLIC ETHER COMPOUNDS USEFUL AS KINASE INHIBITORS” (NOVARTIS AG, priority 2010, published 2013).
# pEC50, pIC50: −log10 of the molar value. Read-outs that look alike come from different tables or passages of the source.
# Key:
# [1] = system: KMS11 (human myeloma cell line); assay: Cell proliferation assay (CellTiter-Glo), KMS11; assay type: cell-based; details: Homo sapiens, KMS-11
# Procedure, shortened: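 EC50 derived from CellTiter-Glo luminescence after 3-day exposure at 37° C. Compound was diluted to 2× in medium and added to an equal volume of cells. KMS11 myeloma cells were plated on assay day at 2000/well in IMDM with 10% FBS and sodium pyruvate.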
# FGFR3 kinase = FGFR3 kinase (Homo sapiens, UniProt P22607); assay: FGFR3 kinase inhibition assay (LanthaScreen TR-FRET); assay type: biochemical
# Sequence of FGFR3 kinase (P22607 23-806): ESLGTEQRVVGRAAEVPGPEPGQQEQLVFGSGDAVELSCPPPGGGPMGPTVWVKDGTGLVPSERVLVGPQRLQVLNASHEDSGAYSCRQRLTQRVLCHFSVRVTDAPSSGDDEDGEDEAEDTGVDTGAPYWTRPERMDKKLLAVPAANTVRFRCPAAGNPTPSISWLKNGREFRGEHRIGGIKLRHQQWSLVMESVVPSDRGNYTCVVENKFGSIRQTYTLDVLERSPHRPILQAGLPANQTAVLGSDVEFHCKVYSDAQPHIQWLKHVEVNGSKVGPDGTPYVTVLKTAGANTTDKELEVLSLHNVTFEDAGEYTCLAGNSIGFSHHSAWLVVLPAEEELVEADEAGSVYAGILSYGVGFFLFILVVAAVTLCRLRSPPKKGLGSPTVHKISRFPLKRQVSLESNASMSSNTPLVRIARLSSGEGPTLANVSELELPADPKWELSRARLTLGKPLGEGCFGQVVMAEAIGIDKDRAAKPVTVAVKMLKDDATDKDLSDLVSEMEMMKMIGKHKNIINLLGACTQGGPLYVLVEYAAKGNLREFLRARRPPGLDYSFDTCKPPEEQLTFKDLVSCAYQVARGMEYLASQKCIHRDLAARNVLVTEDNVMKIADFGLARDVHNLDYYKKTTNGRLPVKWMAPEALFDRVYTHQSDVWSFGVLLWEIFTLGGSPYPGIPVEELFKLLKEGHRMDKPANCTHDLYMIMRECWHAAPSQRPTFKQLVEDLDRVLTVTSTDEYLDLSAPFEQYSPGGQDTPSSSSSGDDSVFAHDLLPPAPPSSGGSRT
# Description: FGFR3 Kinase Inhibition Assay
# LanthaScreen™ is the detection of Time-Resolved Fluorescence Resonance Energy Transfer (TR-FRET) using lanthanide chelates to measure interactions between various binding partners. The application of TR-FRET to assay kinase activity was first described by Mathis (1995). A TR-FRET assay was used to measure FGFR3 kinase inhibitory activity. The assay panel was run on a Biomek FX liquid handling workstations. To the assay plates containing […] compound or control solutions, 4.5 μL of buffer A (50 mM TRIS-HCl pH 7.4, 2 mM DTT, 0.02% Tween 20, 0.02 mM Na3VO4, H2O nanpure) including a generic concentration of ATP (2 μM f.c.) was added per well, followed by 4.5 μL of buffer B (4 uM ATP in Buffer A) including a generic concentration of polyEAY (50 nM f.c.), FGFR3 kinase, and divalent cations. Final concentration of kinase and cations were: [FGFR3 kinase]=0.20 nM, [Mg]=3 mM, [Mn]=3 mM. After 1 hour of incubation the kinase reactions were stopped by the addition of 4.5 μL of stop solution D (50 mM EDTA, 20 mM TRIS-HCl pH 7.4, 0.04% NP-40) immediately followed by 4.5 μL of buffer A (50 mM TRIS-HCl pH 7.4, 2 mM DTT, 0.02% Tween 20, 0.02 mM Na3VO4, H2O nanpure) including the Tb-labeled P-20 antibody to give a total detection volume of 18 μL. After an incubation time of 45 min in the dark, the plates were transferred into the Pherastar fluorescence reader for counting. The effect of compound on the enzymatic activity was obtained from the linear progress curves and determined from one reading (end point measurement).
# PDGFRaV561D kinase = PDGFRaV561D kinase (Homo sapiens, UniProt P16234, V561D); assay: PDGFRaV561D kinase inhibition assay (LanthaScreen TR-FRET); assay type: biochemical; details: read-out: PDGFRa IC50
# Sequence of PDGFRaV561D kinase (P16234 24-1089 V561D): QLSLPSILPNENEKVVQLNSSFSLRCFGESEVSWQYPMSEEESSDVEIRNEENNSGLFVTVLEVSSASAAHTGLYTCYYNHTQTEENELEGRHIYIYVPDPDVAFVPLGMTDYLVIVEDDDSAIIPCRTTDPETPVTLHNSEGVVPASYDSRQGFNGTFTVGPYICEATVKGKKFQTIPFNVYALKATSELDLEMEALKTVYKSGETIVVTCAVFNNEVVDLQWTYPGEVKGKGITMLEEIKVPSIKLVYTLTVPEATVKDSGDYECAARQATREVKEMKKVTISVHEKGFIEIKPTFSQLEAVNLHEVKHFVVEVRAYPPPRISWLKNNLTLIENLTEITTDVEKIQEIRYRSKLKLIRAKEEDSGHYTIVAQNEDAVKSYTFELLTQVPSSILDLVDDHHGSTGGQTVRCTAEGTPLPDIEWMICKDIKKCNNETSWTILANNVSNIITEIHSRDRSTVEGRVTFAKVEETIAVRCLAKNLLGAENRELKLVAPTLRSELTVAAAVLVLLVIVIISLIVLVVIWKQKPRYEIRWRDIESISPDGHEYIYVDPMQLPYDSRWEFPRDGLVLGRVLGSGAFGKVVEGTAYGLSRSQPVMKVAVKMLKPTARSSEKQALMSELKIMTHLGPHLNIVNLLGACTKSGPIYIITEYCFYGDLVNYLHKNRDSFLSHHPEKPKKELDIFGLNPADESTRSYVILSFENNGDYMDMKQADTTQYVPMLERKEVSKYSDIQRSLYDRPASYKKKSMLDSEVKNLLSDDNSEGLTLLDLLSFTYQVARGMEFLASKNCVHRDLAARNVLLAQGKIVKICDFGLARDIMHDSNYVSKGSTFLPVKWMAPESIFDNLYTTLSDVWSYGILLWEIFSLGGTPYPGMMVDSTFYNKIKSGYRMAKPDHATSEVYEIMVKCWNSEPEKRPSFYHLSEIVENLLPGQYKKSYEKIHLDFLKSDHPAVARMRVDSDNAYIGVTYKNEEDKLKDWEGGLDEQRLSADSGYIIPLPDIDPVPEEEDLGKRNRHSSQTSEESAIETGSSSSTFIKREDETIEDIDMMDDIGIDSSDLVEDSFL
# Description: PDGFRaV561D Kinase Inhibition Assay
# LanthaScreen™ is the detection of Time-Resolved Fluorescence Resonance Energy Transfer (TR-FRET) using lanthanide chelates to measure interactions between various binding partners. The application of TR-FRET to assay kinase activity was first described by Mathis (1995). A TR-FRET assay was used to measure PDGFRaV561D kinase inhibitory activity. The assay panel was run on a Biomek FX liquid handling workstations. To the assay plates containing […] compound or control solutions, 4.5 μL of buffer A (50 mM TRIS-HCl pH 7.4, 2 mM DTT, 0.02% Tween 20, 0.02 mM Na3VO4, H2O nanpure) including a generic concentration of ATP (2 μM f.c.) was added per well, followed by […] of buffer B (4 uM ATP in Buffer A) including a generic concentration of polyEAY (50 nM f.c.), PDGFRaV561D kinase, and divalent cations. Final concentration of kinase and cations were: [PDGFRaV561D kinase]=4.4 nM, [Mn]=10 mM. After 1 hour of incubation the kinase reactions were stopped by the addition of 4.5 μL of stop solution D (50 mM EDTA, 20 mM TRIS-HCl pH 7.4, 0.04% NP-40) immediately followed by 4.5 μL of buffer A (50 mM TRIS-HCl pH 7.4, 2 mM DTT, 0.02% Tween 20, 0.02 mM Na3VO4, H2O nanpure) including the Tb-labeled P-20 antibody to give a total detection volume of […]. After an incubation time of 45 min in the dark, the plates were transferred into the Pherastar fluorescence reader for counting. The effect of compound on the enzymatic activity was obtained from the linear progress curves and determined from one reading (end point measurement).
# PIM2 = PIM2 (Homo sapiens, UniProt Q9P1W9); assay: Pim 2 AlphaScreen assay (high ATP); assay type: biochemical; details: read-out: Pim2 IC50
# Sequence of PIM2 (Q9P1W9 whole entry): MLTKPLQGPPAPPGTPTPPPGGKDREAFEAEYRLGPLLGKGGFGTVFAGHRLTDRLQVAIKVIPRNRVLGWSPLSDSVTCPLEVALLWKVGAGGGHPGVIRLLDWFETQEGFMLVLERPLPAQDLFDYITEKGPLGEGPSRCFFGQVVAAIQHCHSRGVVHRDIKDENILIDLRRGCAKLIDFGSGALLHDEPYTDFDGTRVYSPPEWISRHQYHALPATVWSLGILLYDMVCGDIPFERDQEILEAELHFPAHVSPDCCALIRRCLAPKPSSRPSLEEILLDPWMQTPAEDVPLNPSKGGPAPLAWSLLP
# Procedure, shortened: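 IC50 values rest on detection of phosphorylated Bad peptide: after a ~2 h kinase reaction, an EDTA stop buffer containing anti-phospho Ser/Thr antibody, Protein A and streptavidin AlphaScreen beads was added and read after overnight dark incubation. ATP was high (11-125× Km), with 2.5% DMSO in pH 7.5 Hepes buffer containing MgCl2, BSA, Tween-20 and DTT.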
# [2] = KMS11 cells, cell proliferation, read-out: KMS11-Luc EC50
pEC50 ([1]; KMS11-Luc cells),pIC50 (FGFR3 kinase),pIC50 (PDGFRaV561D kinase),"pEC50 [1, 2]",pIC50 (PIM2),SMILES
5.44,5.10,5.10,,,"Nc1ncc(-c2ccccc2)nc1C(=O)Nc1cnccc1[C@@H]1C[C@H](O)[C@]2(O)CCCC[C@@H]2O1 [Example 176, 3-amino-N-(4-((2S,4S,4aR,8aS)-4,4a-dihydroxyoctahydro-2H-chromen-2-yl)pyridin-3-yl)-6-phenylpyrazine-2-carboxamide]"
< 5.00,< 5.00,< 5.00,,,"O=C(Nc1cnccc1[C@H]1C[C@@H](O)[C@@]2(O)CCCC[C@H]2O1)c1c[nH]cc(-c2ccccc2)c1=O [Example 178, N-(4-((2R,4R,4aS,8aR)-4,4a-dihydroxyoctahydro-2H-chromen-2-yl)pyridin-3-yl)-4-oxo-5-phenyl-1,4-dihydropyridine-3-carboxamide]"
,7.36,7.64,5.80,7.12,"Nc1ncc(-c2ccccc2)nc1C(=O)Nc1cnccc1[C@H]1C[C@@H](N)[C@@]2(O)CCC[C@H]2O1 [Example 183, 3-amino-N-(4-((2R,4R,4aS,7aR)-4-amino-4a-hydroxyoctahydrocyclopenta[b]pyran-2-yl)pyridin-3-yl)-6-phenylpyrazine-2-carboxamide]"
,< 5.00,5.39,5.03,5.19,"Nc1ncc(-c2ccccc2)nc1C(=O)Nc1cnccc1[C@@H]1C[C@H](N)[C@]2(O)CCC[C@@H]2O1 [Example 185, 3-amino-N-(4-((2S,4S,4aR,7aS)-4-amino-4a-hydroxyoctahydrocyclopenta[b]pyran-2-yl)pyridin-3-yl)-6-phenylpyrazine-2-carboxamide]"
5.16,5.43,< 5.00,,,"Nc1ncc(-c2ccccc2)nc1C(=O)Nc1cnccc1[C@@H]1C[C@H](O)[C@]2(O)CCC[C@@H]2O1 [Example 186, 3-amino-N-(4-((2S,4S,4aR,7aS)-4,4a-dihydroxyoctahydrocyclopenta[b]pyran-2-yl)pyridin-3-yl)-6-phenylpyrazine-2-carboxamide]"
,6.08,7.60,6.02,7.06,"CC[C@]1(O)[C@H](N)C[C@H](c2ccncc2NC(=O)c2nc(-c3ccccc3)cnc2N)O[C@@H]1C [Example 187, 3-amino-N-(4-((2R,4R,5S,6R)-4-amino-5-ethyl-5-hydroxy-6-methyltetrahydro-2H-pyran-2-yl)pyridin-3-yl)-6-phenylpyrazine-2-carboxamide]"
,5.13,5.77,5.05,4.60,"CC[C@]1(O)[C@H](C)O[C@H](c2ccncc2NC(=O)c2nc(-c3ccccc3)cnc2N)C[C@@H]1N [Example 189, 3-amino-N-(4-((2S,4S,5R,6S)-4-amino-5-ethyl-5-hydroxy-6-methyltetrahydro-2H-pyran-2-yl)pyridin-3-yl)-6-phenylpyrazine-2-carboxamide]"
6.96,7.96,7.48,,,"Nc1ncc(-c2ccccc2)nc1C(=O)Nc1cnccc1[C@H]1C[C@@H](O)[C@@]2(O)CCC[C@H]2O1 [Example 195, 3-amino-N-(4-((2R,4R,4aS,7aR)-4,4a-dihydroxyoctahydrocyclopenta[b]pyran-2-yl)pyridin-3-yl)-6-phenylpyrazine-2-carboxamide]"
5.09,< 5.00,< 5.00,,,"O=C1CC[C@H]2O[C@@H](c3ccncc3NC(=O)c3ccc(F)c(-c4c(F)cccc4F)n3)C[C@@H](O)[C@@H]2N1 [Example 196, 6-(2,6-difluorophenyl)-5-fluoro-N-(4-((2R,4R,4aS,8aR)-4-hydroxy-6-oxooctahydro-2H-pyrano[3,2-b]pyridin-2-yl)pyridin-3-yl)picolinamide]"
6.19,< 5.00,6.40,,,"N[C@@H]1C[C@H](c2ccncc2NC(=O)c2ccc(F)c(-c3c(F)cccc3F)n2)O[C@@H]2CCC[C@]12O [Example 210, N-(4-((2R,4R,4aS,7aR)-4-amino-4a-hydroxyoctahydrocyclopenta[b]pyran-2-yl)pyridin-3-yl)-6-(2,6-difluorophenyl)-5-fluoropicolinamide]"
5.55,< 5.00,5.40,,,"Nc1cnc(-c2c(F)cccc2F)nc1C(=O)Nc1cnccc1[C@H]1C[C@@H](N)[C@@]2(O)CCC[C@H]2O1 [Example 213, 5-amino-N-(4-((2R,4R,4aS,7aR)-4-amino-4a-hydroxyoctahydrocyclopenta[b]pyran-2-yl)pyridin-3-yl)-2-(2,6-difluorophenyl)pyrimidine-4-carboxamide]"
,< 5.00,6.41,6.19,,"N[C@@H]1C[C@H](c2ccncc2NC(=O)c2ccc(F)c(-c3c(F)cccc3F)n2)O[C@@H]2CCC[C@H]12 [Example 224, N-(4-((2R,4R,4aR,7aR)-4-aminooctahydrocyclopenta[b]pyran-2-yl)pyridin-3-yl)-6-(2,6-difluorophenyl)-5-fluoropicolinamide]"
,< 5.00,5.82,5.52,,"N[C@H]1C[C@@H](c2ccncc2NC(=O)c2csc(-c3c(F)cccc3F)n2)O[C@H]2CCC[C@H]21 [Example 230, N-(4-((2S,4S,4aS,7aS)-4-aminooctahydrocyclopenta[b]pyran-2-yl)pyridin-3-yl)-2-(2,6-difluorophenyl)thiazole-4-carboxamide]"
,< 5.00,5.12,,8.74,"Nc1cc(F)c(-c2c(F)cccc2F)nc1C(=O)Nc1cnccc1[C@H]1C[C@@H](N)[C@@]2(O)CCCC[C@H]2O1 [Example 238, 3-amino-N-(4-((2R,4R,4aS,8aR)-4-amino-4a-hydroxyoctahydro-2H-chromen-2-yl)pyridin-3-yl)-6-(2,6-difluorophenyl)-5-fluoropicolinamide]"
,< 5.00,6.40,,8.00,"COc1cc(F)c(-c2nc(C(=O)Nc3cnccc3[C@H]3C[C@@H](N)[C@](C)(O)[C@@H](C)O3)ccc2F)c(F)c1 [Example 242, N-(4-((2R,4R,5S,6R)-4-amino-5-hydroxy-5,6-dimethyltetrahydro-2H-pyran-2-yl)pyridin-3-yl)-6-(2,6-difluoro-4-methoxyphenyl)-5-fluoropicolinamide]"
,6.70,8.06,,6.55,"CC1(C)C[C@@H](N)C[C@H](c2ccncc2NC(=O)c2nc(-c3ccccc3)cnc2N)O1 [Example 296, 3-amino-N-(4-((2R,4S)-4-amino-6,6-dimethyltetrahydro-2H-pyran-2-yl)pyridin-3-yl)-6-phenylpyrazine-2-carboxamide]"
,5.80,6.82,,6.29,"CC1(C)C[C@H](N)C[C@@H](c2ccncc2NC(=O)c2nc(-c3ccccc3)cnc2N)O1 [Example 297, 3-amino-N-(4-((2S,4R)-4-amino-6,6-dimethyltetrahydro-2H-pyran-2-yl)pyridin-3-yl)-6-phenylpyrazine-2-carboxamide]"
